{
  "source": "paper PMC12751014",
  "about": "“Non-Catalytic Inhibitors of the p38/MK2 Interface: Repurposing Approved Drugs to Target Neuroinflammation in Alzheimer’s Disease” (Journal of Medicinal Chemistry, 2025)",
  "key": {"p38α [1]": {"target": "p38α", "conditions": "systematic kinase profiling; reference number not given; read-out: K d for p38α; cited from earlier work"}, "[2]": {"tested_on": "human iPSC-derived microglia (iMGL)", "assay": "qRT-PCR of LPS/IFNγ-induced TNF-α expression in iPSC-derived microglia (iMGL)", "format": "cell-based", "conditions": "5 μM compound 1 h before LPS/IFN-γ 24 h"}, "p38/MK2 interaction [3]": {"target": "T1, p38/MK2 interaction (Homo sapiens, UniProt Q16539)", "T1 sequence (Q16539 whole entry)": "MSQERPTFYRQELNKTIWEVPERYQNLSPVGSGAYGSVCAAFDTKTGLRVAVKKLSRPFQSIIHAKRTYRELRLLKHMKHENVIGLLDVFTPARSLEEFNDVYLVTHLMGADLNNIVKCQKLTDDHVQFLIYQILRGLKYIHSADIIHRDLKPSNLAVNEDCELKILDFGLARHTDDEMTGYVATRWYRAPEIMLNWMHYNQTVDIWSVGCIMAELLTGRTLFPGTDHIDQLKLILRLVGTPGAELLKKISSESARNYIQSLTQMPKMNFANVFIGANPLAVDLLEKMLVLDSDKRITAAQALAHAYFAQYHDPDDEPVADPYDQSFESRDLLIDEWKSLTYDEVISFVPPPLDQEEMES", "assay": "TR-FRET assay with purified recombinant His-p38 and GST-MK2", "format": "binding", "conditions": "side-by-side TR-FRET, 2h incubation", "protocol": "ENSG00000112062, UniProt ID: Q16539-1) was cloned into a pMCSG7 vector and transformed into Escherichia coli strain BL21(DE3). […] The resuspended cells were lysed through sonication. The lysate was centrifuged for 20 min at 70,000g at 4 °C and the clarified supernatant was passed through a gravity column containing 2 mL Ni-NTA resin pre-equilibrated with equilibration buffer. The resin was then washed with 25 column volumes of equilibration buffer supplemented with 40 mM imidazole, and the protein was eluted with equilibration buffer supplemented with 200 mM imidazole. […] The purity of the enzyme was verified by sodium dodecyl sulfate-polyacrylamide gel electrophoresis (SDS-PAGE) with Coomassie staining, aliquots flash frozen in liquid nitrogen, and stored at -80 °C."}, "[4]": {"target": "T2, endogenous p38/MK2 complex (Homo sapiens, UniProt Q16539)", "T2 construct": "endogenous in cells; host or cells: HMC3 (ATCC CRL-3304)", "T2 sequence (Q16539 whole entry, one chain of several)": "as the sequence (Q16539 whole entry) above", "assay": "Co-immunoprecipitation of endogenous p38/MK2 complex in HMC3 cells", "format": "cell-based", "conditions": "HMC3 cell lysate", "protocol": "HMC3 cells were lysed with 1% NP-40 lysis buffer, as described above. Clear cell lysate was incubated with equilibrated MK2-Trap Agarose beads (ChromoTek, catalog no. mta-20) or Binding Control Agarose Beads (Chromotek, catalog no. bab-20) and compounds or DMSO at 4 °C for 2 h. Immunoprecipitates were washed three times with 1% NP-40 lysis buffer. Samples were boiled in 1X SDS-PAGE sample buffer (BioRad, catalog no. 1610747) for 5 min before analysis by Western blotting.\nProteins in each sample were separated by SDS-PAGE at 200 V for 40 min using 12.5% acrylamide gels. Transfer to nitrocellulose membranes was completed using the Trans-Blot Turbo Transfer System (BioRad) in TBT buffer (BioRad, catalog no. 10026938). Thirty min incubation in 5% nonfat dry milk (BioRad, catalog no. 170–6404) in TBST buffer (20 mM Tris-base, 150 mM NaCl, and 0.05% Tween 20) at room temperature was used to block membranes. p38α MAPK mouse mAb (Cell Signaling Technology, catalog no. 9217) was used to blot the membrane at 4 °C overnight. […] The wash step was repeated, and the blot was imaged with a ChemiDoc imaging system (BioRad). The SuperSignal West Pico PLUS Chemiluminescent Substrate (Thermo Scientific, catalog no. 34580) was used for developing membranes. Blotting of MK2 was then started with the removal of p38α antibodies using a striping buffer (Thermal Scientific, catalog no. 46430). […]"}, "[5]": {"target": "recombinant His-tagged p38 (Homo sapiens, UniProt Q16539)", "sequence (Q16539 whole entry)": "as above"}, "HMC3 microglial cells": {"tested_on": "HMC3 microglial cells", "assay": "qRT-PCR of LPS-induced cytokine expression in HMC3 microglial cells", "format": "cell-based, human", "conditions": "HMC3, 5 μM compound 1 h before 100 ng/mL LPS 4 h", "protocol": "HMC3 cells were treated with 100 ng/mL E. coli LPS (Sigma-Aldrich, catalog no. L4005) for 4 h in DMEM media. […] Following pretreatment, iMGLs were challenged with 100 ng/mL LPS and 20 ng/mL interferon-γ (IFN-γ) for 24 h to induce an inflammatory response. At the end of the stimulation, cell lysates were collected for qPCR analysis of TNF-α […] gene expression. Total RNA isolation from cell samples was conducted using the RNeasy Plus kit (Qiagen, catalog no. 74134) according to manufacturer instructions and treated with DNase I (Invitrogen, catalog no. 18068-015). Extracted RNA was quantified using the Nanodrop One Spectrophotometer (Thermo Scientific) and then reverse-transcribed into cDNA in equal quantity (<1000 ng/reaction) with the SuperScript III System (Invitrogen, catalog no. 18080-051) following manufacturer directions. cDNA sample was treated with RNase H (Invitrogen, catalog no. 18021014) and diluted to 4 ng/μL equivalent of the starting total RNA. qPCR was performed in 96-well PCR plates (BioRad, catalog no. HSP9601) using the Realplex4Mastercycler (Eppendorf). Each reaction well combines 5 μL cDNA sample, 10 μL 2X SYBR Green Supermix (BioRad, catalog no. 1725271), 1 μL 5 μM primer mix for each target gene, and nuclease-free water up to 20 μL. […] The primer sequences used were: TNFα forward [NT], reverse [NT]-6 forward [NT], reverse [NT]-1β forward [NT], reverse [NT] Each gene was expression-normalized against the housekeeping gene GAPDH with the primer sequences: forward [NT], reverse [NT] Primers were obtained from Integrated DNA Technologies in lyophilized form. The cycler program was set to denaturation at 95 °C for 15 s, followed by annealing and extension at 60 °C for 60 s, repeated for 40 PCR cycles. Melting curve analyses were performed for each sample to ensure primer specificity. The experiment was performed in biological quadruplicates and technical quadruplicates."}, "p38α [6]": {"tested_on": "p38α", "conditions": "systematic kinase profiling; reference number not given; read-out: IC50, inhibition of p38α catalysis; cited from earlier work"}, "p38/MK2 interaction [7]": {"target": "T1, p38/MK2 interaction", "assay": "TR-FRET ultra-high-throughput screening (uHTS), 1536-well, HEK293T lysate VF-p38α / GST-MK2", "format": "binding", "parameters": "inhibition of p38/MK2 interaction, primary screen: concentration or dose not given beside the values"}},
  "note": "Entries after “also recorded” stand apart in the source; their conditions may differ.",
  "data": [
    {"smiles": "Cc1cn(-c2cc(NC(=O)c3ccc(C)c(Nc4nccc(-c5cccnc5)n4)c3)cc(C(F)(F)F)c2)cn1", "note": "[Nilotinib, 4-methyl-N-[3-(4-methylimidazol-1-yl)-5-(trifluoromethyl)phenyl]-3-[(4-pyridin-3-ylpyrimidin-2-yl)amino]benzamide]", "values": [
      {"measurement": "Kd", "setting": "p38α [1]", "value": 100, "unit": "nM"},
      {"measurement": "LPS/IFNγ-induced TNF-α expression", "setting": "[2]", "value": "suppresses; also recorded: suppression"},
      {"measurement": "maximal inhibition of p38/MK2 PPI", "setting": "p38/MK2 interaction [3]", "value": "~75", "unit": "%"},
      {"measurement": "endogenous p38/MK2 complex formation (co-IP)", "setting": "[4]", "value": "disrupts the endogenous p38/MK2 complex"},
      {"measurement": "endogenous p38/MK2 complex formation (co-IP)", "setting": "[4]; listed as nilotinib", "value": "decreased p38/MK2 complex formation"},
      {"measurement": "ΔT max (thermal stabilization)", "setting": "[5]", "value": 8.22, "unit": "°C"},
      {"measurement": "LPS-induced TNF-α, IL-6, and IL-1β expression", "setting": "HMC3 microglial cells", "value": "significantly (p-value <0.05) suppresses; also recorded: significantly reduced"},
      {"measurement": "IC50", "setting": "p38α [6]", "value": "~2200", "unit": "nM"},
      {"measurement": "inhibition of p38/MK2 interaction, primary screen", "setting": "p38/MK2 interaction [7]; relative to DMSO control, 1536-well", "value": "≥ 50", "unit": "%"},
      {"measurement": "Pct of control", "setting": "p38/MK2 interaction [7]; uHTS TR-FRET signal, Emory Enriched Library", "value": "8.91 Pct of control"}
    ]}
  ]
}
